The results in this text go back to patent US20070041944A1, “Treating tumors by ENH dislocation of ID proteins” (THE TRUSTEES OF COLUMBIA UNIVERSITY IN THE CITY OF NEW YORK, priority 2005, published 2007).

The target in assay [1] is Flag-Id2. Put plainly: cell-based or functional assay.
Assay [2] has as its system Flag-Id2 in SK-N-SH cells. The assay can be described thus: Quantitative analysis of subcellular localization of Flag-Id2 after RA (double immunofluorescence). The assay is classed as cell-based, human. The settings on record: 48 h, SK-N-SH expressing Flag-Id2, three independent experiments. As for the experimental part: Quantitative Analysis of Subcellular Localization of Id2 and siRNA Experiments: SK-N-SH-Flag-Id2 cells untreated or treated with RA for 48 h were fixed in 4% paraformaldehyde. Flag-Id2 and endogenous ENH were immunostained by using Flag-M2 (Sigma) and ENH antibodies, respectively. SK-N-SH cells were transfected with vector or p3XFlag-ENH and immunostained by using Flag-M2 and Id2 (Zymed) antibodies. For silencing of ENH, ENH siRNA (siGenome Smartpool reagent M-006930-00) and control, nontargeting (siGenome Smartpool reagent D-001206-13) siRNA mixtures were purchased from Dharmacon. SK-N-SH cells stably expressing Flag-Id2 were treated with vehicle control or RA for 48 h and transfected with 60 nM siRNAs by using Lipofectamine 2000 (Invitrogen). Thirty-six hours after transfection cells were fixed in 4% paraformaldehyde and immunostained by using Flag-M2 antibodies. Parallel cultures were analyzed by Western blot. Secondary antibodies were FITC- or Cy3-conjugated anti-rabbit and Cy3-conjugated anti-mouse (Jackson ImmunoResearch). Nuclei were counterstained with DAPI. Slides were mounted in 90% glycerol in PBS and analyzed on an Olympus epifluorescence microscope. The percentage of cells displaying Id2 staining in the nucleus was scored by counting at least 500 cells from triplicate samples. […]

The subject of assay [3] is SH-N and SH-F cells. The assay can be described thus: Cell-cycle exit of neuroblastoma cells treated with RA. The assay is classed as cell-based, human. Conditions: RA 0.1 μM. An excerpt: Human neuroblastoma cells are frequently used as in vitro models to recapitulate differentiation of the nervous system. To ask whether ENH expression is regulated during differentiation of the nervous system, clonal derivatives of the human neuroblastoma cell line SK-N-SH, the SK-N-SH-N (SH-N) and SK-N-SH-F (SH-F) cells were used. These cells, which lack N-myc gene amplification, have been used to characterize the cell-cycle exit associated with differentiation of neural cells. When treated with a low concentration of RA (0.1 μM) SH-N cells undergo differentiation along the neuronal lineage, whereas SH-F cells acquire an epithelioid morphology and rapidly enter into a senescent-like state. Both cell types arrest in the G1 phase of the cell cycle within 48 h of treatment with RA. […] Although higher concentrations of RA led to marked inhibition of N-myc and Id2 gene expression in N-myc-amplified neuroblastoma cells, it was noted that RA at the concentration of 0.1 μM caused little change of Id2 expression in the SK-N-SH derivatives. However, a late decrease of Id2 protein was evident in RA-treated SH-N cells (FIG. 3D).

In assay [4] the target is T1, full length Id2 as bait (entire coding sequence of human Id2 in bait plasmid pDBLeu) (human, UniProt Q02363 1-134).
T1 construct: Yeast two-hybrid bait (Proquest system, pDBLeu); also called Id2 bait
T1 sequence (looked up): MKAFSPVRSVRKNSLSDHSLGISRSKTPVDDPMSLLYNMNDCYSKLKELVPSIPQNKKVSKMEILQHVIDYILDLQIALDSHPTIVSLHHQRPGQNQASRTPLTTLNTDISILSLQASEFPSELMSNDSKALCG
The assay can be described thus: yeast two-hybrid screen of a human fetal brain cDNA library. As for the experimental part:
Yeast Two-Hybrid Screening: The Proquest system (Invitrogen Life Technologies, Carlsbad, Calif.) was used for yeast two-hybrid screening. The entire coding sequence of human Id2 was subcloned into the bait plasmid pDBLeu. A human fetal brain cDNA library in pPC86 was transformed into MaV203 yeast cells and screened for interactors with the bait plasmid according to the manufacturer's protocol.
To identify new interactors of Id2 from the nervous system, a yeast two-hybrid screen was conducted with a human fetal brain cDNA library using full length Id2 as bait. This screen yielded 47 validated cDNA clones corresponding to four different Id2-associated proteins. Among them, 24 clones code for Id2, 13 clones code for the bHLH transcription factor E2-2, eight clones code for the bHLH transcription factor HEB, and two clones code for the PDZ-LIM protein ENH. All Id2 and bHLH clones retain an intact HLH domain. This finding is consistent with the essential role of the HLH domain for heterodimerization. The presence of endogenous Id2 is explained by the strong homodimerization ability of Id2 and its abundant expression in the fetal brain.

“endogenous ENH from RA-treated SK-N-SH neuroblastoma cells (from UniProt Q96HC4 2-596)” gave a percentage of cells with cytoplasmic Flag-Id2 after RA treatment (double immunofluorescence) in assay [1] of 60%.
For `CC1=C(/C=C/C(C)=C/C=C/C(C)=C/C(=O)O)C(C)(C)CCC1` [RA, retinoic acid], the “cells with Flag-Id2 relocated to the cytoplasm” value is reported as around 60% in assay [2] (ENH positive cells after RA) and 10% in assay [2] (ENH-negative cells after RA). Also, in assay [3], the “time to arrest in the G1 phase of the cell cycle” value is at most 48 h.

B1: C-terminal fragment of ENH (amino acids 461-596) of the two two-hybrid clones (other)
chain: EKGALYCELCYEKFFAPECGRCQRKILGEVINALKQTWHVSCFVCVACGKPIRNNVFHLEDGEPYCETDYYALFGTICHGCEFPIEAGDMFLEALGYTWHDTCFVCSVCCESLEGQTFFSKKDKPLCKKHAHSVNF
notes: Prey clones from a human fetal brain cDNA library in pPC86; also called ENH clones
B1: the binding result in assay [4] is on record as “binds”.
